Results: ChEMBL document CHEMBL1126805, “Synthesis and evaluation of a series of benzylaniline hydrochlorides as potential cytotoxic and antimitotic agents acting by inhibition of tubulin polymerization” (J Med Chem, 1993)

Columns and labels:
[1] = test system: OVCAR-3; experiment: Tested for cytotoxicity against OVCAR-3 (ovarian cancer) cell line.; format: functional, Homo sapiens
[2] = test system: CAKI-1; experiment: Tested for cytotoxicity against CAKI-1 renal cancer; format: functional, Homo sapiens
[3] = test system: NCI-H522; experiment: Tested for cytotoxicity against NCI-H522 (non-small-cell lung cancer) cell line.; format: functional, Homo sapiens
[4] = test system: DMS-273; experiment: Tested for cytotoxicity against DMS 273 (small-cell lung cancer) cell line.; format: functional, Homo sapiens
[5] = target: Tubulin (Bos taurus, UniProt Q6B856+Q862F3); experiment: In vitro inhibition of bovine electrophoretically homogeneous tubulin polymerization.; format: functional
Tubulin, sequence (Q6B856 whole entry): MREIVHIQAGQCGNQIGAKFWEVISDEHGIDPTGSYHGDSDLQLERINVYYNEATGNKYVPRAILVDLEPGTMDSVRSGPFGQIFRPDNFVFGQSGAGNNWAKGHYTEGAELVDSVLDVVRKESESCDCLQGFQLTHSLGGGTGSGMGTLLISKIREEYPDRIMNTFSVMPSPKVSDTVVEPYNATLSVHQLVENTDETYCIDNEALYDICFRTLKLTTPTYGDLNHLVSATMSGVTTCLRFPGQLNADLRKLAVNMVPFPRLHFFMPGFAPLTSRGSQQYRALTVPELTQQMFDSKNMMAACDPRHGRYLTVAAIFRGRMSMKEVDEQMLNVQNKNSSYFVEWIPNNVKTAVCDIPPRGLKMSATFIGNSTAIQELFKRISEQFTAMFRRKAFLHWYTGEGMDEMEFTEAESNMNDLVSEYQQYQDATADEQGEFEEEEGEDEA
Tubulin, sequence (Q862F3 whole entry): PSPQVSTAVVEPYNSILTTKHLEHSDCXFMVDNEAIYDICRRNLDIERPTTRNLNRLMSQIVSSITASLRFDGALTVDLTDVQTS

[6] = test system: COLO 205; experiment: Tested for cytotoxicity against COLO 205 (colon cancer) cell line.; format: functional, Homo sapiens
[7] = test system: HL-60; experiment: Tested for cytotoxicity against human cancer cell lines HL-60(TB) (leukemia) cell line.; format: functional
[8] = test system: SF-295; experiment: In vitro cytotoxicity against SF-295 (CNS cancer) cell line.; format: functional, Homo sapiens
[9] = test system: M14; experiment: Tested for cytotoxicity against M14 melanoma; format: functional, Homo sapiens

SMILES	GI50 ([1]; Homo sapiens, OVCAR-3)	GI50 ([2]; Homo sapiens, CAKI-1)	GI50 ([3]; Homo sapiens, NCI-H522)	GI50 ([4]; Homo sapiens, DMS-273)	IC50 [5]	GI50 [6]	GI50 [1]	GI50 [7]	GI50 [8]	GI50 [2]	GI50 [9]	GI50 [3]	GI50 [4]	GI50 ([6]; Homo sapiens, COLO 205)	GI50 ([7]; Homo sapiens, HL-60)	GI50 ([9]; Homo sapiens, M14)	GI50 ([8]; Homo sapiens, SF-295)
COc1ccc(/N=C/c2cc(OC)c(OC)c(OC)c2)cc1	> 100 µM	> 100 µM	> 100 µM	33 µM	> 40 µM	–	–	–	–	–	–	–	–	–	–	–	–
COc1cc(CNc2ccc(SC)cc2)cc(OC)c1OC [listing 1 of 2 here]	–	–	–	–	16 µM	3.6 µM	4.85 µM	3.29 µM	3.41 µM	16.3 µM	4.84 µM	2.95 µM	4.91 µM	–	–	–	–
CCCc1ccc(NCc2cc(OC)c(OC)c(OC)c2)cc1	–	–	–	16.2 µM	> 40 µM	–	–	–	–	–	–	–	–	–	–	–	–
COc1cc(CNc2ccc(SC)cc2)cc(OC)c1OC [listing 2 of 2 here]	5.93 µM	32 µM	4.68 µM	3.09 µM	> 40 µM	–	–	–	7.28 µM	–	–	–	–	3.88 µM	3.7 µM	5.26 µM	–
COc1cc(CNc2ccc(C(C)C)cc2)cc(OC)c1OC	–	–	–	12.9 µM	> 40 µM	–	–	–	–	–	–	–	–	–	–	–	–
COc1cc(CNc2ccc(C)cc2)cc(OC)c1OC	0.184 µM	0.192 µM	–	0.0926 µM	6 µM	–	–	0.122 µM	–	–	–	–	–	0.152 µM	–	0.15 µM	0.163 µM
COc1cc(/C=N/c2ccc(C(C)C)cc2)cc(OC)c1OC	> 100 µM	> 100 µM	> 100 µM	52.5 µM	> 40 µM	–	–	–	–	–	–	–	–	> 100 µM	> 100 µM	> 100 µM	> 100 µM
COc1ccc(NCc2cc(OC)c(OC)c(OC)c2)cc1	–	–	–	–	4.6 µM	0.235 µM	0.363 µM	0.115 µM	0.266 µM	0.458 µM	–	0.412 µM	0.141 µM	–	–	–	–
CCc1ccc(NCc2cc(OC)c(OC)c(OC)c2)cc1	0.283 µM	0.354 µM	0.234 µM	–	3 µM	–	–	–	–	–	–	–	0.135 µM	0.344 µM	0.168 µM	0.315 µM	0.266 µM
